Chromatographic logP, inhibition and pest or weed control data for 4 compounds are collected here from patent US12501900B2, “Heterocyclyl pyridazine as fungicidal compounds” (Bayer Aktiengesellschaft, priority 2018, dated 2025).

Data set [1] in a line: Measurement of LogP values by HPLC on reversed phase columns (EEC directive 79/831 Annex V.A8), methods [a], [b], [c]. To be noted: HPLC on reversed phase column, method [a]; read-out: Log P. Format: physicochemical. The procedure, abridged: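 Log P determined by reversed-phase HPLC following EEC directive 79/831 Annex V.A8. Multiple values within one method are listed joined by "+". Lambda-max taken from UV spectra over 200–400 nm at chromatographic peak maxima.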

In the next data set the test system is Alternaria alternata. The data set can be described thus: Alternaria alternata in vitro cell test. To be noted: 120 h, 20 ppm of active ingredient, liquid culture, 5 days incubation, read-out: efficacy (inhibition of fungal growth). It counts as cell-based.
For another data set, the system named is Alternaria brassicae. The data set is described as follows: In vivo preventive test on Alternaria brassicae (leaf spot on radish or cabbage). To be noted: 144 h, 500 ppm of active ingredient, preventive spray on radish or cabbage, evaluated 6 days after inoculation, read-out: efficacy.

Take `COc1cccc(Oc2nnc(Cl)cc2C2=NOCC(Cc3ccc(C)cc3C)N2)c1F` (racemic) [I-005, rac-3-[6-chloro-3-(2-fluoro-3-methoxy-phenoxy)pyridazin-4-yl]-5-[(2,4-dimethylphenyl)methyl]-5,6-dihydro-4H-1,2,4-oxadiazine]: the chromatographic logP in data set [1] was found to be 3.91. Besides, the inhibition at 20 ppm in the data set on Alternaria alternata was in the range of 90 to 100%. The pest or weed control at 500 ppm in the data set with Alternaria brassicae is 90 to 100%.

In the case of `C=C(OCC)c1cc(C2=NOCC(Cc3ccc(C)cc3C)N2)c(Oc2cccc(C(F)(F)F)c2)nn1` (racemic) [I-009, rac-5-[(2,4-dimethylphenyl)methyl]-3-[6-(1-ethoxyvinyl)-3-[3-(trifluoro-methyl)phenoxy]pyridazin-4-yl]-5,6-dihydro-4H-1,2,4-oxadiazine], the chromatographic logP in data set [1] is 4.98. Besides, the inhibition at 20 ppm with Alternaria alternata lay in the range of 90 to 100%. In addition, in the data set with Alternaria brassicae, the pest or weed control at 500 ppm was in the range of 90 to 100%.

Take `FC(F)(F)c1cccc(Oc2nnc(Cl)cc2C2=NOCC(Cc3ccc(Br)cc3Cl)N2)c1` (racemic) [I-016, rac-5-[(4-bromo-2-chloro-phenyl)methyl]-3-[6-chloro-3-[3-(trifluoromethyl)phenoxy]pyridazin-4-yl]-5,6-dihydro-4H-1,2,4-oxadiazine]: in data set [1], the chromatographic logP came to 4.61. Also, in the data set on Alternaria alternata, the inhibition at 20 ppm is 90 to 100%. In addition, the pest or weed control at 500 ppm with Alternaria brassicae lay in the range of 90 to 100%.

Regarding `COCCOc1c(Cl)nnc(Oc2cccc(C(F)(F)F)c2)c1C1=NOCC(Cc2ccc(C)cc2C)N1` (racemic) [I-072, rac-3-[6-chloro-5-(2-methoxyethoxy)-3-[3-(trifluoro-methyl)phenoxy]pyridazin-4-yl]-5-[(2,4-dimethylphenyl)methyl]-5,6-dihydro-4H-1,2,4-oxadiazine], the chromatographic logP in data set [1] stood at 4.18. In addition, in the data set with Alternaria alternata, the inhibition at 20 ppm fell in the range of 90 to 100%. Besides, the pest or weed control at 500 ppm in the data set with Alternaria brassicae lay within 90 to 100%.

A word on the inhibition: it is the share of the control response that was lost under treatment.
